According to paper PMC3016232 (Cancer Chemotherapy and Pharmacology, 2010):

Legend:
[1] = clinical; assay type: in vivo, human
[2] = assay type: in vivo, human
[3] = system: UGT1A; test: Formation of SN-38G from SN-38 in pooled human liver microsomes; assay type: in vitro ADME; settings: SN-38 5 μM, 30 min, microsomal protein 0.8 mg/mL
[4] = system: UGT1A1 mRNA; test: UGT1A1 mRNA levels in HCT116 cells by quantitative RT-PCR; assay type: cell-based, human; settings: HCT 116 cells; methimazole 25–100 μM; up to ~48 h
[5] = mean of the courses with or without methimazole, plasma
[6] = courses with methimazole, plasma
[7] = courses without methimazole, plasma

In the case of `CCc1c2c(nc3ccc(OC(=O)N4CCC(NCCCCC(=O)O)CC4)cc13)-c1cc3c(c(=O)n1C2)COC(=O)C3(O)CC` (centres unmarked) [APC, 7-Ethyl-10-[4-N-(5-aminopentanoic acid)-1-piperidino]-carbonyloxy-camptothecin], the “mean exposure (AUC) to APC” value [1, 5] is reported as 3,018 ng × h/mL.
In the case of `CCc1c2c(nc3ccc(OC(=O)N4CCC(N5CCCCC5)CC4)cc13)-c1cc3c(c(=O)n1C2)COC(=O)[C@]3(O)CC` [irinotecan], the AUC ([1]; male, human, in vivo) is reported as 16100 ng·h/mL, the Irinotecan-related toxicity ([2]; all courses) is reported as “mild” and the “mean absolute neutrophil count nadir” value ([2]; mean of all courses) is reported as 4.2e+09 L⁻¹.
For `Cn1cc[nH]c1=S` [methimazole], the “effect on SN-38G formation” value ([3]; methimazole 37.5 μM) was “did not decrease” and the “induction of UGT1A1 mRNA levels compared to untreated control cells” value [4] was 15–18 fold.
For `CCc1c2c(nc3ccc(OC(=O)N4CCC(N)CC4)cc13)-c1cc3c(c(=O)n1C2)COC(=O)[C@]3(O)CC` [NPC, 7-Ethyl-10-[4-amino-1-piperidino]-carbonyloxycamptothecin], the “mean exposure (AUC) to NPC” value [1, 5] was 32.3 ng·h/mL.
For `CCc1c2c(nc3ccc(O)cc13)-c1cc3c(c(=O)n1C2)COC(=O)[C@]3(O)CC` [SN-38, 7-Ethyl-10-hydroxy camptothecin], the “mean relative extent of glucuronidation (ratio of SN-38G over SN-38)” value ([1]; courses with methimazole) was 10.1, the “mean SN-38 AUC” value [1, 6] was 125 ng·h/mL and the “mean relative extent of glucuronidation (ratio of SN-38G over SN-38)” value ([1]; courses without methimazole) was 6.85. The “mean SN-38 AUC” value [1, 7] was 110 ng·h/mL.
In the case of `CCc1c2c(nc3ccc(O[C@@H]4O[C@H](C(=O)O)[C@@H](O)[C@H](O)[C@H]4O)cc13)-c1cc3c(c(=O)n1C2)COC(=O)[C@]3(O)CC` [SN-38G], the “mean SN-38G AUC” value [1, 6] is reported as 1,255 ng × h/mL and the “mean SN-38G AUC” value [1, 7] is reported as 753 ng·h/mL.
In the case of `CC(=O)N1CCN(c2ccc(OCC3COC(Cn4ccnc4)(c4ccc(Cl)cc4Cl)O3)cc2)CC1` (centres unmarked) [ketoconazole], the “reduction of SN-38G formation” value ([3]; ketoconazole 25 μM) is reported as 43%.
